Data from ChEMBL document CHEMBL3991601, “The target landscape of clinical kinase drugs” (Science, 2017).
Active and inactive are the calls of the source.

Columns and labels:
[1] = molecular target: Ribosomal protein S6 kinase beta-1 (Homo sapiens, UniProt P23443)
[2] = molecular target: AP2-associated protein kinase 1 (Homo sapiens, UniProt Q2M2I8)
[3] = molecular target: T1, Succinate--CoA ligase [ADP-forming] subunit beta, mitochondrial (Homo sapiens, UniProt Q9P2R7)
T1 sequence (Q9P2R7 whole entry): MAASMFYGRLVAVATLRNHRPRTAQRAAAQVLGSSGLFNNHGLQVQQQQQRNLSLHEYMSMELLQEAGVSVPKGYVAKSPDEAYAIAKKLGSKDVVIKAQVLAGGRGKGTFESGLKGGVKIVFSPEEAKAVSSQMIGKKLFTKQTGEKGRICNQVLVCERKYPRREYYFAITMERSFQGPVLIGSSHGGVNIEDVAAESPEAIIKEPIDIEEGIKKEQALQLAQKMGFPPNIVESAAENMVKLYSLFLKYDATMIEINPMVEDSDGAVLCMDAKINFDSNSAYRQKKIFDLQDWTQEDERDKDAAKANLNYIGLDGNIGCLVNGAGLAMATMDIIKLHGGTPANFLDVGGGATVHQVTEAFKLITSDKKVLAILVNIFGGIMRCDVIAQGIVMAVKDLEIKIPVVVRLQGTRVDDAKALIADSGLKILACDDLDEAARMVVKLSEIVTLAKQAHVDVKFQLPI

[4] = molecular target: Casein kinase I isoform alpha (Homo sapiens, UniProt P48729)
[5] = molecular target: Casein kinase I isoform gamma-1 (Homo sapiens, UniProt Q9HCP0)
[6] = molecular target: Mitogen-activated protein kinase 11 (Homo sapiens, UniProt Q15759)
[7] = molecular target: Tyrosine-protein kinase Fyn (Homo sapiens, UniProt P06241)
[8] = molecular target: T2, Ephrin type-B receptor 3 (Homo sapiens, UniProt P54753)
T2 sequence (P54753 whole entry): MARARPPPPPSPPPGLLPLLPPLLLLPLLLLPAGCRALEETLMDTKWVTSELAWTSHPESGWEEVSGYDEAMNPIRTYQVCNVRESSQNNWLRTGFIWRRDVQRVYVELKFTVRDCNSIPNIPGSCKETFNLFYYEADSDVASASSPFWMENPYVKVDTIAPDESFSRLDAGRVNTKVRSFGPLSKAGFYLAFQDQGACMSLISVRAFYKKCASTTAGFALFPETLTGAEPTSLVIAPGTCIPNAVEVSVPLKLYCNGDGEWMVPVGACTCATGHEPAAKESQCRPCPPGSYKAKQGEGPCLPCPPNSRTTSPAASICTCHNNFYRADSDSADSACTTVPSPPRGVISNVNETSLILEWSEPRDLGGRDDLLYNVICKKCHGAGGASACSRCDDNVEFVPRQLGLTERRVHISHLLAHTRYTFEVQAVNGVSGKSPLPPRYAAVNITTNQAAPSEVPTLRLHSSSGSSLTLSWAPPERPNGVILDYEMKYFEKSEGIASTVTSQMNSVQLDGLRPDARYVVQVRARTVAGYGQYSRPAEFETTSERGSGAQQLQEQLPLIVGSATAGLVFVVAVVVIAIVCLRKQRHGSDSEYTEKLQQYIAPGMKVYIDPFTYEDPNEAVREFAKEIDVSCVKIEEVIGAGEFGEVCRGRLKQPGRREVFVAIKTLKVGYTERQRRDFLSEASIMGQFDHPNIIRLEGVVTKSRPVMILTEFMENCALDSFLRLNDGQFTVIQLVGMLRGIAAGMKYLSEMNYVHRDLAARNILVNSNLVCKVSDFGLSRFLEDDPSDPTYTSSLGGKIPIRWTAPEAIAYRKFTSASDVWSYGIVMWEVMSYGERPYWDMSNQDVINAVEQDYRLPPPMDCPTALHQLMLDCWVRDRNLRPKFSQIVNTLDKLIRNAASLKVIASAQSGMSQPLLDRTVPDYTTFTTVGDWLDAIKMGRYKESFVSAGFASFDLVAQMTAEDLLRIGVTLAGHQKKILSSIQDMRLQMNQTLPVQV

[9] = molecular target: Putative heat shock protein HSP 90-beta 2 (Homo sapiens, UniProt Q58FF8)
[10] = molecular target: T3, Activin receptor type-1B (Homo sapiens, UniProt P36896)
T3 sequence (P36896 whole entry): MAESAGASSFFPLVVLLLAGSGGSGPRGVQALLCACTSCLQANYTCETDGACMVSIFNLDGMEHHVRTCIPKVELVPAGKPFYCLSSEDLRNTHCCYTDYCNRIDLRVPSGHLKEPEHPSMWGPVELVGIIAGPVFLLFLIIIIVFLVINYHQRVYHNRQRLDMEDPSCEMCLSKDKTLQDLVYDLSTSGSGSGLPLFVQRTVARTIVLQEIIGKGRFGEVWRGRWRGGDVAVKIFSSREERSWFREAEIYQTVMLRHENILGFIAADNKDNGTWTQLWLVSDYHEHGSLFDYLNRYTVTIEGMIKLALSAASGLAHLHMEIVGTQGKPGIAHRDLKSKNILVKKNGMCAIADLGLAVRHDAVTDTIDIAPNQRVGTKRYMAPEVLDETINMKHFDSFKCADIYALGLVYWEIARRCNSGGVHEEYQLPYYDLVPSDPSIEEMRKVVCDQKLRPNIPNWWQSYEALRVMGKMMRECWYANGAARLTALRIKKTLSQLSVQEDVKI

[11] = molecular target: Guanine nucleotide-binding protein G(i) subunit alpha-2 (Homo sapiens, UniProt P04899)
[12] = molecular target: Focal adhesion kinase 1 (Homo sapiens, UniProt Q05397)
Also: in the data inactive means no Kd found up to 30 µM.

Chain of Mitogen-activated protein kinase 11 (Q15759 whole entry): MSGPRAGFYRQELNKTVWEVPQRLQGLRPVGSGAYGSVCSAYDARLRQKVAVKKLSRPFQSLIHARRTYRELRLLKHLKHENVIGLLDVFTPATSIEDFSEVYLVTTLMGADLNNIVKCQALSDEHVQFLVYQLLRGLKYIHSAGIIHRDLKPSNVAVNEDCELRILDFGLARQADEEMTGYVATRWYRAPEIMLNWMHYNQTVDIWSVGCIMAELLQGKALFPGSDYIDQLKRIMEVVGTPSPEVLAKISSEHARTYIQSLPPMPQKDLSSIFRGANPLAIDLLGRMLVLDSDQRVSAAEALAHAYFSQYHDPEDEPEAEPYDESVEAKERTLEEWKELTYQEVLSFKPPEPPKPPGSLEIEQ
Chain of Casein kinase I isoform gamma-1 (Q9HCP0 whole entry, canonical isoform): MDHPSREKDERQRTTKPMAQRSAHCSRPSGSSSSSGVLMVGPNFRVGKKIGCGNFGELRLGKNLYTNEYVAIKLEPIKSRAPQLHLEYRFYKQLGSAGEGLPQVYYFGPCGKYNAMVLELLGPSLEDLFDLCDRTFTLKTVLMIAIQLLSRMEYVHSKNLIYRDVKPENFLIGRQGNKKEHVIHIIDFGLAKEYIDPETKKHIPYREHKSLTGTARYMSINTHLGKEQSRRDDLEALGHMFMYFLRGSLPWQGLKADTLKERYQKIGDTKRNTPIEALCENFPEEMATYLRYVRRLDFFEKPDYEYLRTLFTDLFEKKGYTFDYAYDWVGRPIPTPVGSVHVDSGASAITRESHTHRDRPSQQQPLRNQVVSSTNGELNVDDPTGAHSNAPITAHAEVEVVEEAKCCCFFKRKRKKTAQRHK
Chain of Putative heat shock protein HSP 90-beta 2 (Q58FF8 whole entry): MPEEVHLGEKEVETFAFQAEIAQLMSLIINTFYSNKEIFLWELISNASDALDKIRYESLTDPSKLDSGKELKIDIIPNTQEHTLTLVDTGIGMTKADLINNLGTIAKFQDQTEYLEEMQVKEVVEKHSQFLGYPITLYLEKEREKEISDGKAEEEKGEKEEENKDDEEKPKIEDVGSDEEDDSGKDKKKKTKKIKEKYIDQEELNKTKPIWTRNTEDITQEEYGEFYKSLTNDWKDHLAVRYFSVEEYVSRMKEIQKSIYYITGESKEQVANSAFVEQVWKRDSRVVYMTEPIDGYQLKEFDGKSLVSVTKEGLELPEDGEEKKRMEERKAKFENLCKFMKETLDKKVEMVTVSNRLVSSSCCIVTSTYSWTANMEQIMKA
Chain of Focal adhesion kinase 1 (Q05397 whole entry): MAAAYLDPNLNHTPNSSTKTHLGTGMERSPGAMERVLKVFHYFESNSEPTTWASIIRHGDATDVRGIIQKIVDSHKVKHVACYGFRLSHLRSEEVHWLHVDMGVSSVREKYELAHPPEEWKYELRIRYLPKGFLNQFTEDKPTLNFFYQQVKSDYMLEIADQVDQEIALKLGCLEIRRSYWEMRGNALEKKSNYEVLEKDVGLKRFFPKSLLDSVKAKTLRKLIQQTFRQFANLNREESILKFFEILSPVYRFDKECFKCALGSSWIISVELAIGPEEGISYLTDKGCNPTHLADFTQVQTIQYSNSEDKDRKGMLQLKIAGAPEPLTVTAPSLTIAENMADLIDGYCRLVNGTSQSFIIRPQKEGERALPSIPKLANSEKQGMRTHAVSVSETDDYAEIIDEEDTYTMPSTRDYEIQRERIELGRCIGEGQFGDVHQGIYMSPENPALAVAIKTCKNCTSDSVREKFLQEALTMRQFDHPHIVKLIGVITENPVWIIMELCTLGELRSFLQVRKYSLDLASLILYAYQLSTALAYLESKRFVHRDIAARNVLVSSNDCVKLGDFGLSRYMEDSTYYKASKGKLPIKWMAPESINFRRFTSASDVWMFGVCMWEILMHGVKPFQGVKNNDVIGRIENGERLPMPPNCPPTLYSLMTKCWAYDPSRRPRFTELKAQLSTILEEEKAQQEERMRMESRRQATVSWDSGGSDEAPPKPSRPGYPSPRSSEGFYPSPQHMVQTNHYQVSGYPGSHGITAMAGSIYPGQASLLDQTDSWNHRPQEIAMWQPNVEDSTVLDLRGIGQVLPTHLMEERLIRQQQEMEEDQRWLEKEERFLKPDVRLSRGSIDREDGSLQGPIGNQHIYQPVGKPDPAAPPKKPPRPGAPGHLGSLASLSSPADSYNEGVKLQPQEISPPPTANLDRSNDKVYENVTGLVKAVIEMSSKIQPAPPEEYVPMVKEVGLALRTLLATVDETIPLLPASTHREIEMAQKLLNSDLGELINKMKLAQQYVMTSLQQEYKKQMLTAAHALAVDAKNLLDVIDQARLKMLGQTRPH
Chain of AP2-associated protein kinase 1 (Q2M2I8 whole entry): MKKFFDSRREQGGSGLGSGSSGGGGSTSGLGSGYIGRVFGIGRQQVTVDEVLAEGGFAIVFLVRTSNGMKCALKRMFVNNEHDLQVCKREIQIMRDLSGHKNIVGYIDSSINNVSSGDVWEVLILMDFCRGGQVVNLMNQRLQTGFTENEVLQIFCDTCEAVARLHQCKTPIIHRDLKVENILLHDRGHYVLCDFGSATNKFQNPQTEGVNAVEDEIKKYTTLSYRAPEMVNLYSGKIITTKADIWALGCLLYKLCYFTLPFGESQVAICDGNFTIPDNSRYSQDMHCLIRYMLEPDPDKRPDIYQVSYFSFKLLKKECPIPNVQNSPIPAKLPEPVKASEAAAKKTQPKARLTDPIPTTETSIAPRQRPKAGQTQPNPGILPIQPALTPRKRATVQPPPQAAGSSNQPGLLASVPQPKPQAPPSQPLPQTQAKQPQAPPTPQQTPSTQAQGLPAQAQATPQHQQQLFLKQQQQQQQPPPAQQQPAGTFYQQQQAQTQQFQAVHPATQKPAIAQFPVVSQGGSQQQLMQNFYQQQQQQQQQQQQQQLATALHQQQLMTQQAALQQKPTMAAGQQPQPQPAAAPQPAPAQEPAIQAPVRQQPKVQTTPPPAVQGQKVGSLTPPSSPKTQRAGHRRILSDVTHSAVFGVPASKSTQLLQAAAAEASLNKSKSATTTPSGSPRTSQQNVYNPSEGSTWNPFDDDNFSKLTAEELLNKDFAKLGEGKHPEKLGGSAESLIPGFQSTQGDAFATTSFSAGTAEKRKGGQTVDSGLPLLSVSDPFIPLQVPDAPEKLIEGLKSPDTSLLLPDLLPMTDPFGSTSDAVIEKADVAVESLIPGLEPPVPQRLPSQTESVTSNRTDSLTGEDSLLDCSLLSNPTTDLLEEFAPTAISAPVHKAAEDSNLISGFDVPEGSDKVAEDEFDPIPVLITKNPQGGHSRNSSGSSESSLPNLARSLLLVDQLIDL
Chain of Guanine nucleotide-binding protein G(i) subunit alpha-2 (P04899 whole entry): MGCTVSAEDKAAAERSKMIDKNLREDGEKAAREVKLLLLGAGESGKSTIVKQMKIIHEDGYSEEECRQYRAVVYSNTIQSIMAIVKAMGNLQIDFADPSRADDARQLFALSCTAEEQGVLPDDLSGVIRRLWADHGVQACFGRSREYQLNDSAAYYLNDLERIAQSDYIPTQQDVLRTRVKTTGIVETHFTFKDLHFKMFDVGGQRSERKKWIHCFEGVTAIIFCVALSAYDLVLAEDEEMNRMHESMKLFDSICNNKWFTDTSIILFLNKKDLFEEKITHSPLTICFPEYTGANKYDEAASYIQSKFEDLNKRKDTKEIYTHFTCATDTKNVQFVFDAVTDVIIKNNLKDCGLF
Chain of Tyrosine-protein kinase Fyn (P06241 whole entry): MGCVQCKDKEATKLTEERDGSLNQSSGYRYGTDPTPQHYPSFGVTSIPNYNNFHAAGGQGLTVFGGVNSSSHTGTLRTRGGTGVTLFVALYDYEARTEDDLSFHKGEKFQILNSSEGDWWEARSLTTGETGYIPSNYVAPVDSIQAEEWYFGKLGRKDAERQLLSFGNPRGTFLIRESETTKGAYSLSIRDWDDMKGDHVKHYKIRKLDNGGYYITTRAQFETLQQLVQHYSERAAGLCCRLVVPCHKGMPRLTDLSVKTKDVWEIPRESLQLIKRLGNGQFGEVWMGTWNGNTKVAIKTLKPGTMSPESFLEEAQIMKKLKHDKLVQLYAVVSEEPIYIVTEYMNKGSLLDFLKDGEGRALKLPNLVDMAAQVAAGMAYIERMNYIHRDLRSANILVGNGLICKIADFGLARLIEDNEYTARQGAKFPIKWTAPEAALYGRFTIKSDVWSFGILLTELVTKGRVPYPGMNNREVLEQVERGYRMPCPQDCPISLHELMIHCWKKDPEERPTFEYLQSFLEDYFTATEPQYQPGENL
Chain of Casein kinase I isoform alpha (P48729 whole entry, canonical isoform): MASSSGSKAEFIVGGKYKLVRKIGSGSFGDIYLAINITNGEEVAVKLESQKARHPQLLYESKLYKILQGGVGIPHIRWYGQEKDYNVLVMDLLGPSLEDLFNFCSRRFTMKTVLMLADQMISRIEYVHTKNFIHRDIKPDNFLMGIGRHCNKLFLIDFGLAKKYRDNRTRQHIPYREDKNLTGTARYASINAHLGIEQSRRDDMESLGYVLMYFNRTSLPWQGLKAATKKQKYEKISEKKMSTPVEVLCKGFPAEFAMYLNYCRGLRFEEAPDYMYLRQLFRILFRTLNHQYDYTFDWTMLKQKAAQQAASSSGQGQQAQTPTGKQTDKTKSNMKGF
Chain of Ribosomal protein S6 kinase beta-1 (P23443 whole entry): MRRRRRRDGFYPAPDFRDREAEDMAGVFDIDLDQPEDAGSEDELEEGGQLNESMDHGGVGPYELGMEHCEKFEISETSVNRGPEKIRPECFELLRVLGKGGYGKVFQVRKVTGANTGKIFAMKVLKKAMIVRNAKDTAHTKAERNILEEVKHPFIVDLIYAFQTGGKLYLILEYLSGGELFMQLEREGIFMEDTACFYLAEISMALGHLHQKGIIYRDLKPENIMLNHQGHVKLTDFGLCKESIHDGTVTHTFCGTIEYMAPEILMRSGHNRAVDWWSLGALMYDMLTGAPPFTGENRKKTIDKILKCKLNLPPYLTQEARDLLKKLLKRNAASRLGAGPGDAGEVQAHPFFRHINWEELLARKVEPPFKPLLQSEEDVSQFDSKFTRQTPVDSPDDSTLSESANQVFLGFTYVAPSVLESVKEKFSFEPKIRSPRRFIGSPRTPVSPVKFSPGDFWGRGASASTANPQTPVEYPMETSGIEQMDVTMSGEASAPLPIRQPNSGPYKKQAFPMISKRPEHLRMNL

Row | Kd [1] | Kd [2] | Kd [3] | Kd [4] | Kd [5] | Kd [6] | Kd [7] | Kd [8] | Kd [9] | Kd [10] | Kd [11] | Kd [12] | SMILES
1 | > 30 µM (inactive) | > 30 µM (inactive) | > 30 µM (inactive) | > 30 µM (inactive) | > 30 µM (inactive) | > 30 µM (inactive) | > 30 µM (inactive) | > 30 µM (inactive) | > 30 µM (inactive) | > 30 µM (inactive) | > 30 µM (inactive) | > 30 µM (inactive) | CO[C@H]1C[C@@H]2CC[C@@H](C)[C@@](O)(O2)C(=O)C(=O)N2CCCC[C@H]2C(=O)O[C@H]([C@H](C)C[C@@H]2CC[C@@H](OC(=O)C(C)(CO)CO)[C@H](OC)C2)CC(=O)[C@H](C)/C=C(\C)[C@@H](O)[C@@H](OC)C(=O)[C@H](C)C[C@H](C)/C=C/C=C/C=C/1C [TEMSIROLIMUS]
2 | > 30 µM (inactive) | > 30 µM (inactive) | > 30 µM (inactive) | > 30 µM (inactive) | > 30 µM (inactive) | > 30 µM (inactive) | > 30 µM (inactive) | > 30 µM (inactive) | > 30 µM (inactive) | > 30 µM (inactive) | > 30 µM (inactive) | > 30 µM (inactive) | COc1cc2c(Nc3ccc(Cl)c(Cl)c3F)ncnc2cc1OC[C@@H]1C[C@@H]2CN(C)C[C@@H]2C1 [TESEVATINIB]
3 | > 30 µM (inactive) | > 30 µM (inactive) | > 30 µM (inactive) | > 30 µM (inactive) | > 30 µM (inactive) | > 30 µM (inactive) | > 30 µM (inactive) | > 30 µM (inactive) | > 30 µM (inactive) | > 30 µM (inactive) | > 30 µM (inactive) | > 30 µM (inactive) | O=C1NC(=O)[C@@H](c2cn3c4c(cccc24)CCC3)[C@@H]1c1c[nH]c2ccccc12 [TIVANTINIB]
4 | > 30 µM (inactive) | > 30 µM (inactive) | > 30 µM (inactive) | > 30 µM (inactive) | > 30 µM (inactive) | 0.684 µM (active) | > 30 µM (inactive) | > 30 µM (inactive) | > 30 µM (inactive) | > 30 µM (inactive) | > 30 µM (inactive) | > 30 µM (inactive) | C[C@@H](NC(=O)c1ncnc(N)c1Cl)c1ncc(C(=O)Nc2cc(C(F)(F)F)c(Cl)cn2)s1 [TOVORAFENIB]
5 | > 30 µM (inactive) | > 30 µM (inactive) | > 30 µM (inactive) | 1.68 µM (active) | > 30 µM (inactive) | > 30 µM (inactive) | > 30 µM (inactive) | > 30 µM (inactive) | > 30 µM (inactive) | > 30 µM (inactive) | > 30 µM (inactive) | > 30 µM (inactive) | Cn1ncc(Cl)c1-c1cc(C(=O)N[C@H](CN)Cc2ccc(F)c(F)c2)oc1Cl [UPROSERTIB]
6 | > 30 µM (inactive) | > 30 µM (inactive) | > 30 µM (inactive) | > 30 µM (inactive) | > 30 µM (inactive) | > 30 µM (inactive) | > 30 µM (inactive) | > 30 µM (inactive) | > 30 µM (inactive) | > 30 µM (inactive) | > 30 µM (inactive) | > 30 µM (inactive) | CN1C/C=C/CCOc2cccc(c2)-c2ccnc(n2)Nc2cccc(c2)C1 [ZOTIRACICLIB]
